Molecular target: T1, human Nav1.8 (Homo sapiens, UniProt Q9Y5Y9)
T1 construct: expressed in transfected cells; host or cells: HEK293 (HEK293-Nav1.8)
Experiment: Nav1.8 sodium channels assay, QPatch 48 HTX electrophysiology in HEK293-Nav1.8 cells
Type: cell-based
Settings: at least one set of experimental runs; read-out: average pIC50 value against Nav1.8 (converted)
Description: Human embryonic kidney […] cells (HEK293) expressing human Nav1.8, human Navβ1 and human TREK1 (HEK293-Nav1.8) were grown at 37° C., 5% CO2 in 150 cm^2 flasks. HEK293-Nav1.8 were passaged every 2-3 days when confluency reached 80-90% in to T175 cell culture flasks.
Pharmacological assessment of the invention was performed using HEK293-Nav1.8 in combination with an assay developed on the QPatch 48 HTX electrophysiological system. HEK293-Nav1.8 were prepared on the day of use by removing culture media, washing in DPBS, adding Accutase (2 ml to cover the surface, aspirate 1 ml then 1.5 min at 37° C.) followed by addition of CHO-SFM II to stop the enzyme digestion and in order to obtain a suspension of 3×10^6 cell/mL.
The invention was prepared in an extracellular solution of the following composition (in mM) NaCl 145, KCl 4, CaCl2 2, MgCl 2, HEPES 1, Glucose 10, pH 7.4 with NaOH Osmolality 300 mOsM/L. The intracellular solution was used of the following composition (in mM) CsF 115, CsCl 20, NaCl 5, EGTA 10, HEPES 10, Sucrose 20, pH 7.2 with CsOH Osmolality 310 mOsm/L.
Utilizing the voltage-clamp mode in the QPatch 48 HTX system a half inactivation state voltage protocol (V1/2) was used to determine pharmacological activity of the invention at Nav1.8 ion channels. A V1/2 protocol was utilized with the following voltage steps: a holding voltage of −100 mV was established followed by a 20 ms voltage step to 0 mV (P1), followed by an inactivating voltage step at −46 mV for 8 seconds, followed by a step to −100 mV for 20 ms, before a 20 ms step to 0 mV (P2) before returning to the holding voltage of −100 mV. This voltage protocol was repeated at a frequency of 0.07 Hz., current magnitude was quantified at the P2 step throughout the recording. Inhibition of the measured current amplitude with the invention was analyzed by fitting a 6-8 point dose-response curve allowing determination of the fifty percent inhibition concentration (IC50). Within the QPatch HTX software, P2 current was normalized according to measurements made at baseline after compound and after positive reference compound and fit to the following equation: […]
To assess current run-down over the course of the experiment vehicle-only wells were utilized and the normalized current with vehicle-only (n.IVEH) was determined. To correct the compound response for run-down, the currents were correct according the following formula: […]
Compounds of the invention are tested for activity against Nav1. 8 sodium channels in the above assay.

T1 sequence (Q9Y5Y9 whole entry): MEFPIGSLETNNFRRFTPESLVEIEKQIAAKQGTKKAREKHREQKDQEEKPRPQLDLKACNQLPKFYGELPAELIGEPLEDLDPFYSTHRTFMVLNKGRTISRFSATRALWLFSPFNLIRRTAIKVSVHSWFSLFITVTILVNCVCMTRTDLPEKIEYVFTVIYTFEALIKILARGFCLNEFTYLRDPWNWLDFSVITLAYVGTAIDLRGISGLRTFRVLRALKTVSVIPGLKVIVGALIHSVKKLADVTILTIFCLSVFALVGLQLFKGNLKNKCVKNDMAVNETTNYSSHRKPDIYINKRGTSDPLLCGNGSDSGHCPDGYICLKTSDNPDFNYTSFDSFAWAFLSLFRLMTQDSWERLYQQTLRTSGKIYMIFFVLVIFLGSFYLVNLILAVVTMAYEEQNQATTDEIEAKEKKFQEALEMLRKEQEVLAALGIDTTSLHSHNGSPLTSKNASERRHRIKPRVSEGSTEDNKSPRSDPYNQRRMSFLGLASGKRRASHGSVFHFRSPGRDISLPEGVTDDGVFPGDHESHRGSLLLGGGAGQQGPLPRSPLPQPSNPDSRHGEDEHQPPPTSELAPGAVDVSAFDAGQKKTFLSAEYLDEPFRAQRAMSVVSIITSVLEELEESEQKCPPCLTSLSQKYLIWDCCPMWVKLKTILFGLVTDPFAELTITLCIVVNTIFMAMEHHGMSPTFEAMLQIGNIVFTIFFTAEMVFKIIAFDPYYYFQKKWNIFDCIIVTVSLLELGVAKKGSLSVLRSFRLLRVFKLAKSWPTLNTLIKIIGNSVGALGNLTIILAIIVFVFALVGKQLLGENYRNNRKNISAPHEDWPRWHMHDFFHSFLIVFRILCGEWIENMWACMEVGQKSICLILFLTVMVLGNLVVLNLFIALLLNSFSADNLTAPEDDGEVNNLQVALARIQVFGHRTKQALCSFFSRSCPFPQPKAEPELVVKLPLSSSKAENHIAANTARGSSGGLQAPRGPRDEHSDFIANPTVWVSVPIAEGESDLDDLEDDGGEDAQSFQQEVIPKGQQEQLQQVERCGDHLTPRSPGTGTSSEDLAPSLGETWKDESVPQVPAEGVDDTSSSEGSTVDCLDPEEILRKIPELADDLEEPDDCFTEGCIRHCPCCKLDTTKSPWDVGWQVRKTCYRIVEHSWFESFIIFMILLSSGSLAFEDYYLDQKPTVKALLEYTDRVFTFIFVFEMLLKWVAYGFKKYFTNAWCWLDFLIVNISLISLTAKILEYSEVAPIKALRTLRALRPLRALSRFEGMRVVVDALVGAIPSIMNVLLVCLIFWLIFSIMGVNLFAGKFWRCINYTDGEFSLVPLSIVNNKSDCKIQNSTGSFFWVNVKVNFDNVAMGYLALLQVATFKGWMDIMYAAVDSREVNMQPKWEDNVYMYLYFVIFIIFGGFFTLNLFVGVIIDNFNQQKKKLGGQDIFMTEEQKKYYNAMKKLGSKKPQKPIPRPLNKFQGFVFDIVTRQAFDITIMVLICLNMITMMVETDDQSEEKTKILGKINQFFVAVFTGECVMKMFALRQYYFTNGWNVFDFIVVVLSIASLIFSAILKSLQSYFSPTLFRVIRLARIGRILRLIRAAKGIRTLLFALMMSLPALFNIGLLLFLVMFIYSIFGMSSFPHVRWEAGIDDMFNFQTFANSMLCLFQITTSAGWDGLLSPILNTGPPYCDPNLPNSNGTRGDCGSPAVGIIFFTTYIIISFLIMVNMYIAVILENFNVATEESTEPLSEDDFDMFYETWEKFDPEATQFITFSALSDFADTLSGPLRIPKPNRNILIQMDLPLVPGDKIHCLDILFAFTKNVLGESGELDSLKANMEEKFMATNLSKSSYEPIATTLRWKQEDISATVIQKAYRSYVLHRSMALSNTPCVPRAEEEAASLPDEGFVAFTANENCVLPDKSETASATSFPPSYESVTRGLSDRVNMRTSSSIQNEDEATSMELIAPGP
T1 sequence (Q07699 19-218 partner): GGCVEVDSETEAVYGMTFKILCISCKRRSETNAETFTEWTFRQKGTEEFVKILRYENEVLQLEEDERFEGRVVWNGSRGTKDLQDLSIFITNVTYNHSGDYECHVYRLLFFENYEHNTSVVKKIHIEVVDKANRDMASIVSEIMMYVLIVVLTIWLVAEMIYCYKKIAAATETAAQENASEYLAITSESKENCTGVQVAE

Row | Compound | IC50 [nM]
1 | Cc1cnccc1N1CN(c2ccc(F)cc2C)c2ccc(C(F)(F)F)cc2C1=O [Example 16, 1-(4-fluoro-2-methylphenyl)-3-(3-methylpyridin-4-yl)-6-(trifluoromethyl)-2,3-dihydroquinazolin-4(1H)-one] | 126 to 631
2 | Cc1cc(F)ccc1N1CN(C2CCS(=O)(=O)CC2)C(=O)c2ccc(C(F)(F)F)cc21 [Example 17, 3-(1,1-dioxidotetrahydro-2H-thiopyran-4-yl)-1-(4-fluoro-2-methylphenyl)-7-(trifluoromethyl)-2,3-dihydroquinazolin-4(1H)-one] | 794 to 7940
3 | Cc1cc(F)ccc1N1CN(c2cn[nH]c2)C(=O)c2cc(C(F)(F)F)ccc21 [Example 18, 1-(4-fluoro-2-methylphenyl)-3-(1H-pyrazol-4-yl)-6-(trifluoromethyl)-2,3-dihydroquinazolin-4(1H)-one] | 794 to 7940
4 | COc1ccc(N2CN(c3ccc(F)cc3C)c3ccc(C(F)(F)F)cc3C2=O)c(C)n1 [Example 19, 1-(4-fluoro-2-methylphenyl)-3-(6-methoxy-2-methylpyridin-3-yl)-6-(trifluoromethyl)-2,3-dihydroquinazolin-4(1H)-one] | 794 to 7940
5 | Cc1cc(F)ccc1N1CN(c2n[nH]c(=O)cc2C)C(=O)c2ccc(C(F)(F)F)cc21 [Example 20, 1-(4-fluoro-2-methylphenyl)-3-(4-methyl-6-oxo-1,6-dihydropyridazin-3-yl)-7-(trifluoromethyl)-2,3-dihydroquinazolin-4(1H)-one] | 794 to 7940
6 | Cc1cnccc1N1CN(c2ccc(OC(F)(F)F)cc2C)c2ccc(C(F)(F)F)cc2C1=O [Example 21, 1-(2-methyl-4-(trifluoromethoxy)phenyl)-3-(3-methylpyridin-4-yl)-6-(trifluoromethyl)-2,3-dihydroquinazolin-4(1H)-one] | 126 to 631
7 | Cc1cc(Cl)ncc1N1CN(c2ccc(F)cc2C)c2ccc(C(F)(F)F)cc2C1=O [Example 22, 3-(6-chloro-4-methylpyridin-3-yl)-1-(4-fluoro-2-methylphenyl)-6-(trifluoromethyl)-2,3-dihydroquinazolin-4(1H)-one] | 794 to 7940
8 | Cc1cnccc1N1CN(c2ccc(F)cc2C)c2cc(C(F)F)c(Cl)cc2C1=O [Example 23, 6-chloro-7-(difluoromethyl)-1-(4-fluoro-2-methylphenyl)-3-(3-methylpyridin-4-yl)-2,3-dihydroquinazolin-4(1H)-one] | 126 to 631
9 | Cc1cc(F)ccc1N1CN(c2c[nH]nc2C)C(=O)c2cc(C(F)(F)F)ccc21 [Example 28, 1-(4-fluoro-2-methylphenyl)-3-(3-methyl-1H-pyrazol-4-yl)-6-(trifluoromethyl)-2,3-dihydroquinazolin-4(1H)-one] | 126 to 631
10 | Cc1cc(F)ccc1N1CN([C@H]2CCC(=O)N[C@@H]2C)C(=O)c2cc(C(F)(F)F)ccc21 [Example 33, 1-(4-fluoro-2-methylphenyl)-3-((2R,3S)-2-methyl-6-oxopiperidin-3-yl)-6-(trifluoromethyl)-2,3-dihydroquinazolin-4(1H)-one] | ≤ 100
11 | Cc1cc(F)ccc1N1CN(C2CCC(=O)NC2=O)C(=O)c2cc(C(F)(F)F)ccc21 (stereo not shown) [Example 34, 3-(1-(4-fluoro-2-methylphenyl)-4-oxo-6-(trifluoromethyl)-1,4-dihydroquinazolin-3(2H)-yl)piperidine-2,6-dione] | 126 to 631
12 | Cc1cc(F)ccc1N1CN(c2ccc(=O)[nH]c2C)C(=O)c2ccc(C(F)(F)F)cc21 [Example 35, 1-(4-Fluoro-2-methylphenyl)-3-(2-methyl-6-oxo-1,6-dihydropyridin-3-yl)-7-(trifluoromethyl)-2,3-dihydroquinazolin-4(1H)-one] | ≤ 100
13 | Cc1cc(F)ccc1N1CN(c2ccc(=O)[nH]c2)C(=O)c2ccc(C(F)(F)F)cc21 [Example 36, 1-(4-fluoro-2-methylphenyl)-3-(6-oxo-1,6-dihydropyridin-3-yl)-7-(trifluoromethyl)-2,3-dihydroquinazolin-4(1H)-one] | 126 to 631
14 | O=C1c2ccc(C(F)(F)F)cc2N(C2CCCCC2)CN1c1ccc(=O)[nH]c1 [Example 37, 1-cyclohexyl-3-(6-oxo-1,6-dihydropyridin-3-yl)-7-(trifluoromethyl)-2,3-dihydroquinazolin-4(1H)-one] | 794 to 7940
15 | Cc1cc(F)cc(C)c1N1CN(c2ccc(=O)[nH]c2)C(=O)c2ccc(C(F)(F)F)cc21 [Example 38, 1-(4-fluoro-2,6-dimethylphenyl)-3-(6-oxo-1,6-dihydropyridin-3-yl)-7-(trifluoromethyl)-2,3-dihydroquinazolin-4(1H)-one] | 794 to 7940
16 | Cc1cc(F)ccc1N1c2cc(C(F)(F)F)ccc2C(=O)N(c2ccc(=O)[nH]c2)C1C (stereo not shown) [Example 39, 1-(4-fluoro-2-methylphenyl)-2-methyl-3-(6-oxo-1,6-dihydropyridin-3-yl)-7-(trifluoromethyl)-2,3-dihydroquinazolin-4(1H)-one] | 794 to 7940
17 | O=C1c2ccc(C(F)(F)F)cc2N(c2ccc(F)cc2Cl)CN1c1ccc(=O)[nH]c1 [Example 40, 1-(2-chloro-4-fluorophenyl)-3-(6-oxo-1,6-dihydropyridin-3-yl)-7-(trifluoromethyl)-2,3-dihydroquinazolin-4(1H)-one] | 126 to 631
18 | O=C1c2ccc(C(F)(F)F)cc2N(c2ccc(F)cc2OCCO)CN1c1ccc(=O)[nH]c1 [Example 41, 1-(4-fluoro-2-(2-hydroxyeth-oxy)phenyl)-3-(6-oxo-1,6-dihydropyridin-3-yl)-7-(trifluoromethyl)-2,3-dihydroquinazolin-4(1H)-one] | 794 to 7940
19 | O=C1c2ccc(C(F)(F)F)cc2N(c2ccc(F)cc2F)CN1c1ccc(=O)[nH]c1 [Example 42, 1-(2,4-difluorophenyl)-3-(6-oxo-1,6-dihydropyridin-3-yl)-7-(trifluoromethyl)-2,3-dihydroquinazolin-4(1H)-one] | 794 to 7940
20 | CCc1cc(F)ccc1N1CN(c2ccc(=O)[nH]c2)C(=O)c2ccc(C(F)(F)F)cc21 [Example 43, 1-(2-ethyl-4-fluorophenyl)-3-(6-oxo-1,6-dihydropyridin-3-yl)-7-(trifluoromethyl)-2,3-dihydroquinazolin-4(1H)-one] | 126 to 631
21 | Cc1cc(F)ccc1N1CN(c2ccc(=O)[nH]c2)C(=O)c2ccc(C(F)(F)F)c(Cl)c21 [Example 44, 8-chloro-1-(4-fluoro-2-methylphenyl)-3-(6-oxo-1,6-dihydropyridin-3-yl)-7-(trifluoromethyl)-2,3-dihydroquinazolin-4(1H)-one] | 794 to 7940
22 | Cc1cc(F)ccc1N1CN(c2ccc(=O)[nH]c2)C(=O)c2ccc(C(F)(F)F)c(C)c21 [Example 45, 1-(4-fluoro-2-methylphenyl)-8-methyl-3-(6-oxo-1,6-dihydropyridin-3-yl)-7-(trifluoromethyl)-2,3-dihydroquinazolin-4(1H)-one] | 794 to 7940
23 | Cc1ncccc1N1CN(c2ccc(=O)[nH]c2C)C(=O)c2ccc(C(F)(F)F)cc21 [Example 46, 3-(2-methyl-6-oxo-1,6-dihydropyridin-3-yl)-1-(2-methylpyridin-3-yl)-7-(trifluoromethyl)-2,3-dihydroquinazolin-4(1H)-one] | 794 to 7940
24 | Cc1[nH]c(=O)ccc1N1CN(c2ccc(F)cc2C(C)C)c2cc(C(F)(F)F)ccc2C1=O [Example 47, 1-(4-fluoro-2-isopropylphenyl)-3-(2-methyl-6-oxo-1,6-dihydropyridin-3-yl)-7-(trifluoromethyl)-2,3-dihydroquinazolin-4(1H)-one] | ≤ 100
25 | Cc1cc(F)ccc1N1CN(c2ccc(=O)[nH]c2C)C(=O)c2cc(Cl)ccc21 [Example 48, 6-chloro-1-(4-fluoro-2-methylphenyl)-3-(2-methyl-6-oxo-1,6-dihydropyridin-3-yl)-2,3-dihydroquinazolin-4(1H)-one] | ≤ 100
26 | Cc1[nH]c(=O)ccc1N1CN(c2ccc(F)cc2)c2ccccc2C1=O [Example 49, 1-(4-fluorophenyl)-3-(2-methyl-6-oxo-1,6-dihydropyridin-3-yl)-2,3-dihydroquinazolin-4(1H)-one] | 794 to 7940
27 | Cc1ccccc1N1CN(c2ccc(=O)[nH]c2C)C(=O)c2ccccc21 [Example 50, 3-(2-methyl-6-oxo-1,6-dihydropyridin-3-yl)-1-(o-tolyl)-2,3-dihydroquinazolin-4(1H)-one] | 126 to 631
28 | Cc1ccc2c(c1)C(=O)N(c1ccc(=O)[nH]c1C)CN2c1ccc(F)cc1C [Example 51, 1-(4-f1uoro-2-methylphenyl)-6-methyl-3-(2-methyl-6-oxo-1,6-dihydropyridin-3-yl)-2,3-dihydroquinazolin-4(1H)-one] | ≤ 100
